# Measured values: ChEMBL document CHEMBL1201862, “PubChem BioAssay data set” (2004)
# Activity calls are given as the source filed them.
# What was measured:
# Bcl-2-related protein A1 = biological target: T1, Bcl-2-related protein A1 (Mus musculus, UniProt Q07440); format: functional;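 further: confirmatory dose–response counterscreen on Bfl-1, used to check hits from a UBC13 polyubiquitin inhibitor campaign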
# T1 sequence (Q07440 whole entry): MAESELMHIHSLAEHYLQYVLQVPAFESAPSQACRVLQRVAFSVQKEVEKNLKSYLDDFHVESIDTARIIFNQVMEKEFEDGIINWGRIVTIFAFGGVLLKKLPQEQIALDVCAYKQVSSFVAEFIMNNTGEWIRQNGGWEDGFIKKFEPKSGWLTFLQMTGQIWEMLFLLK
# [1] = biological target: T2, Ubiquitin-conjugating enzyme E2 N (Homo sapiens, UniProt P61088); format: functional
# T2 sequence (P61088 whole entry): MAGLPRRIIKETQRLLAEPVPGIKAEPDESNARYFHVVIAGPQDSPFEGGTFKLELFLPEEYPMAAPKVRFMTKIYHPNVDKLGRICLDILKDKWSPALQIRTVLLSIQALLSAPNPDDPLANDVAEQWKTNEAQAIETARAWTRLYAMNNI
# [2] = biological target: T2, Ubiquitin-conjugating enzyme E2 N; format: functional; remark: listed apart in the source
# Coagulation factor XII = Coagulation factor XII (Homo sapiens, UniProt P00748); format: functional;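 further: activated factor XIIa alpha cleaving a fluorogenic AMC peptide substrate; inhibitor potency from loss of enzyme activity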
# Chain of Coagulation factor XII (P00748 20-372 limits assumed): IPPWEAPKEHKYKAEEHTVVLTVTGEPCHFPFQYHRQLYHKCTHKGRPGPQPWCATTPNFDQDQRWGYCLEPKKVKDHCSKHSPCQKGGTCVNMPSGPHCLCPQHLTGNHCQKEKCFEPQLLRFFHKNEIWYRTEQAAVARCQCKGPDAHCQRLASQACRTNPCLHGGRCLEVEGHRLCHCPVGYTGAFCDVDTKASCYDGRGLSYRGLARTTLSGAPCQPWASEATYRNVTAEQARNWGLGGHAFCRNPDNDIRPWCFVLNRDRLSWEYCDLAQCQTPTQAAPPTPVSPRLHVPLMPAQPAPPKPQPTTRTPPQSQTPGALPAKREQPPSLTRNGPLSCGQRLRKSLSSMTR
# Chain of Coagulation factor XII (P00748 373-615 limits assumed): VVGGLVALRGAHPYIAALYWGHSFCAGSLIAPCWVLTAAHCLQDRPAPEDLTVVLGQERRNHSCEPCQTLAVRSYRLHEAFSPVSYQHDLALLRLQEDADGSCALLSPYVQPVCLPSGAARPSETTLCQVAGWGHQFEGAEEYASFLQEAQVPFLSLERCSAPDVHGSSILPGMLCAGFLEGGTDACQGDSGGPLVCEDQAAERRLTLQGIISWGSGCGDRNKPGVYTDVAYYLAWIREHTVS
# [3] = biological target: T3, Dual specificity protein phosphatase 3 (Homo sapiens, UniProt P51452); assay: VHR1 phosphatase inhibitors, primary screen, biochemical, absorbance, uHTS (AID 1654)
# T3 sequence (P51452 whole entry): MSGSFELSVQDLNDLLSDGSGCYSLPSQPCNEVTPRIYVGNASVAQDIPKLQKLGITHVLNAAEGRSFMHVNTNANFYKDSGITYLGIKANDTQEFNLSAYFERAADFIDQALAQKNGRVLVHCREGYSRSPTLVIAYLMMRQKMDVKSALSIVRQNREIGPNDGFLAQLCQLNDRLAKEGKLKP
# [4] = biological target: T3, Dual specificity protein phosphatase 3; assay: VHR1 phosphatase inhibitors, biochemical (AID 1878)
# [5] = biological target: T4, Dual specificity protein phosphatase 6 (Rattus norvegicus, UniProt Q64346); assay: MKP-3 phosphatase inhibitors, primary screen, biochemical, rat enzyme, in vitro (AID 425)
# T4 sequence (Q64346 whole entry): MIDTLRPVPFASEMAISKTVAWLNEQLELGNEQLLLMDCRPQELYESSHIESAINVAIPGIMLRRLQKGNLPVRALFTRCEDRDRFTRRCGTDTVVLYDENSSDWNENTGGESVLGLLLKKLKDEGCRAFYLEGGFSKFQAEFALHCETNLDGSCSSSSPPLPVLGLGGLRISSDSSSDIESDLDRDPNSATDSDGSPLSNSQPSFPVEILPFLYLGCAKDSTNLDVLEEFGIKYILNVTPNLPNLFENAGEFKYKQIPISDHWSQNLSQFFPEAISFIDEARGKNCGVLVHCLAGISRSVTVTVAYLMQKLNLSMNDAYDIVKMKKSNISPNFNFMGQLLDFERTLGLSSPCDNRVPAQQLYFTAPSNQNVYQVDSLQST
# [6] = biological target: E3 ubiquitin-protein ligase XIAP (Homo sapiens, UniProt P98170); assay: Counter Screen using XIAP-Bir3 for Chemical Antagonists of Bir1/2 domains of IAP-family anti-apoptotic proteins. [Related pubchem assays (depositor defined):AID1018, AID1449, AID1514, AID1638, AID1749, AID1750, AID488957, AID488963]
# Chain of E3 ubiquitin-protein ligase XIAP (P98170 whole entry, the tested form may be a part): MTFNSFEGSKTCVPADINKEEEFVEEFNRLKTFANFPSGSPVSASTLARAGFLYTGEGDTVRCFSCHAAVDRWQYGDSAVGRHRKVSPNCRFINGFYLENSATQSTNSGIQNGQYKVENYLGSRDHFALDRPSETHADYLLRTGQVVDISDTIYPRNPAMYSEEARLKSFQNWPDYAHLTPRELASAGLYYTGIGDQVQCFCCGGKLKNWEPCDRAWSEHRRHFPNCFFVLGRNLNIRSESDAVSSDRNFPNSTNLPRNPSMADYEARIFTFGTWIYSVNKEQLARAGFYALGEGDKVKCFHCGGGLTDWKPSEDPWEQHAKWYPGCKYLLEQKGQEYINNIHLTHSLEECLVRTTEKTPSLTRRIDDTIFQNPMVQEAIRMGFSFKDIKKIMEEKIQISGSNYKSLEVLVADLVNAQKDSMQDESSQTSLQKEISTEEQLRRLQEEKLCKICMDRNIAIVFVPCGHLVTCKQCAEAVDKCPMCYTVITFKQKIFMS
# [7] = biological target: T5, Carboxy-terminal domain RNA polymerase II polypeptide A small phosphatase 1 (Homo sapiens, UniProt Q9GZU7); assay: inhibitors of CTDSP1, concentration-response testing, biochemical assay, absorbance-based, actives from ultra-high-throughput screening (AID 540297); format: functional
# T5 sequence (Q9GZU7 whole entry): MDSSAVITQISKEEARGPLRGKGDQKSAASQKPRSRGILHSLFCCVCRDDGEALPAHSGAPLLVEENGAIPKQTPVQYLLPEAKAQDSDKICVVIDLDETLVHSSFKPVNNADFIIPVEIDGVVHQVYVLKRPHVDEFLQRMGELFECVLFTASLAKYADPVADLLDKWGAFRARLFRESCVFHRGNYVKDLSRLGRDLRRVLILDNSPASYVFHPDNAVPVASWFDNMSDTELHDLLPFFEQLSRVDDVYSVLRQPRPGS
# [8] = Vero E6 cell cytotoxicity, dose response, cytotoxicity control for non-replicating M. tuberculosis project, secondary assay (AID 492998); format: functional, VeroE6; conditions: Vero C1008
# [9] = NIH-3T3 fibroblast cytotoxicity, dose response, cytotoxicity control, cell-based, fluorescence, Alamar Blue, secondary assay (AID 2327); format: functional;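 further: NIH-3T3 mouse fibroblasts cultured with fluconazole at 8 µg/mL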
# [10] = C. albicans growth with fluconazole, confirmation, fluorescence, retest (AID 2467); format: functional, cell-based
# [11] = biological target: G-protein coupled receptor 55 (Homo sapiens, UniProt Q9Y2T6); assay: GPR55 antagonists blocking LPI-driven arrestin recruitment, primary screen, imaging, U2OS, beta-arrestin-GFP, LPI agonist (AID 2013); format: functional;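 further: antagonist potency measured as reduced agonist-driven arrestin aggregation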
# Chain of G-protein coupled receptor 55 (Q9Y2T6 whole entry): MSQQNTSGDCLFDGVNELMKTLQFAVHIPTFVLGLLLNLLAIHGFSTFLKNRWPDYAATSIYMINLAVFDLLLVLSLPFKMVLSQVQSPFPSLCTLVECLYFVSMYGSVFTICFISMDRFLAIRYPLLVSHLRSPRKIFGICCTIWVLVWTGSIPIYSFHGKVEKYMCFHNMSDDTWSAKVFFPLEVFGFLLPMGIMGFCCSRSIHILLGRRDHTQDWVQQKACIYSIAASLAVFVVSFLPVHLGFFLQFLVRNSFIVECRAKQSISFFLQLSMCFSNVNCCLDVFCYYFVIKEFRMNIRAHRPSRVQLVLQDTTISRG
# [12] = inhibitors of intracellular T. cruzi replication, confirmation, NIH3T3 host cells, beta-gal luminescence (AID 2044); format: functional, cell-based;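 further: intracellular parasites grown in NIH/3T3 mouse fibroblasts as host cells; luminescent beta-galactosidase reporter signal from transgenic T. cruzi replicating inside host cells; inhibitors lower the luminescence signal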
# [13] = cytotoxicity toward NIH3T3 fibroblasts, dose response, counter-screen, cell-based, ATP luminescence, mouse fibroblasts (AID 2010); format: functional;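 further: cells exposed to compound for about 90 hours before reading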
# [14] = biological target: DNA damage-inducible transcript 3 protein (Mus musculus, UniProt P35639); format: functional, Cricetulus griseus
# Chain of DNA damage-inducible transcript 3 protein (P35639 whole entry): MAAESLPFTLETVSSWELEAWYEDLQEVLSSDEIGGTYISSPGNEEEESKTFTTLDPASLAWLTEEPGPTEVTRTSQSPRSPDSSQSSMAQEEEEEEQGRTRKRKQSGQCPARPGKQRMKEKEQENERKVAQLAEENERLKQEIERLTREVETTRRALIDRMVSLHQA
# X-box-binding protein 1 = X-box-binding protein 1 (Homo sapiens, UniProt P17861); format: functional, Cricetulus griseus;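 further: confirmatory dose-response counter-screen serving a CHOP assay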
# Chain of X-box-binding protein 1 (P17861 whole entry): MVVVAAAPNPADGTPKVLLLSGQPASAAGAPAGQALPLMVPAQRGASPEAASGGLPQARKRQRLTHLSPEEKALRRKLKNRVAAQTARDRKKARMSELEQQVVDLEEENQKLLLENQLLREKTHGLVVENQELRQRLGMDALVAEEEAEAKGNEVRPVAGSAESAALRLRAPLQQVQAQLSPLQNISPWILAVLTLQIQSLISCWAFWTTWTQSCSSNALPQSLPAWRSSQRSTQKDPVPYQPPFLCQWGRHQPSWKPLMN
# INS1 = assay: beta cell apoptosis inhibitors, cytokine rescue, dose response, luminescence, retest (AID 449756); format: functional, cell-based; conditions: Rattus norvegicus;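 further: cell death triggered by IL-1 beta plus TNF-alpha plus IFN-gamma mixture; protective hits raise ATP signal compared with cytokine alone wells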
# [15] = Shn3 3'UTR reporter inhibitors, dose response, cell-based, Clone20 osteoblasts, firefly luciferase, cherry-picked (AID 624132); format: functional;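 further: firefly luciferase luminescence from reporter carrying the Shn3 3'UTR in osteoblasts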
# [16] = HepG2 cell cytotoxicity, dose response, cytotoxicity control for Shn3 inhibitor project, CellTiter-Glo, cherry-picked (AID 624134); format: functional, cell-based
# [17] = control 3'UTR Renilla luciferase suppression, dose response, counter-screen for Shn3 inhibitor project, cell-based, Clone20-Shn3RL, cherry-picked (AID 624133); format: functional
# [18] = A549 cell cytotoxicity, dose response, cytotoxicity control, plate reader, cherry-pick, antagonist series (AID 743412); format: functional, cell-based
# [19] = HepG2 cell cytotoxicity, dose response, cytotoxicity control, plate reader, cherry-pick, antagonist series (AID 743416); format: functional, cell-based
# [20] = LGR2 antagonists, dose response, cell-based, HEK293, CRE-luciferase reporter, cherry pick, set 2 (AID 743343); format: functional;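 further: transfected cells were stimulated with diluted bursicon conditioned medium after compound addition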
# [21] = MC4R antagonists, dose response, counter-screen for LGR2 antagonist project, cell-based, plate reader, cherry pick (AID 743444); format: functional;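 further: transfected HEK 293 cells stimulated with alpha-MSH peptide; potency of inhibitors of the alpha-MSH evoked signal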
# [22] = HEK293 cell cytotoxicity, dose response, cytotoxicity control, plate reader, cherry-picked samples (AID 743446); format: functional, cell-based
# [23] = biological target: Sphingosine 1-phosphate receptor 4 (Homo sapiens, UniProt O95977); assay: Late-stage fluorescence dose response cell-based assay to identify agonists of the Sphingosine 1-Phosphate Receptor 4 (S1P4): purchased compounds EC50. [Related pubchem assays (depositor defined):AID1509, AID1523, AID1563, AID1686, AID1701, AID1801]; format: functional
# Chain of Sphingosine 1-phosphate receptor 4 (O95977 whole entry): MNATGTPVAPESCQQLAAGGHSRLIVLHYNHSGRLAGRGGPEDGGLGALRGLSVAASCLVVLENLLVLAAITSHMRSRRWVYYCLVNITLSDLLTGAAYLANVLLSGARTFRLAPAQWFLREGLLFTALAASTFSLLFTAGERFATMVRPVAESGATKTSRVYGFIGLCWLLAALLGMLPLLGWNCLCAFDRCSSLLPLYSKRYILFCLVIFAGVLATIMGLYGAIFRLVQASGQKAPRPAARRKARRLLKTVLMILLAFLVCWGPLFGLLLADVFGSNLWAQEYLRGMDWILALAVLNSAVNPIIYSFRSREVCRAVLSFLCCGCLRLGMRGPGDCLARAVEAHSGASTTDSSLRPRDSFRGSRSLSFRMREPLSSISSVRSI
# [24] = biological target: T6, Tyrosine-protein phosphatase non-receptor type 22 (Homo sapiens, UniProt Q9Y2R2); assay: SAR LYP1 Fluorescent Assay using pCAP substrate for In Vitro dose response studies - Set 2. [Related pubchem assays (depositor defined):AID1779, AID1784, AID2135, AID449727]; format: functional
# T6 sequence (Q9Y2R2 whole entry): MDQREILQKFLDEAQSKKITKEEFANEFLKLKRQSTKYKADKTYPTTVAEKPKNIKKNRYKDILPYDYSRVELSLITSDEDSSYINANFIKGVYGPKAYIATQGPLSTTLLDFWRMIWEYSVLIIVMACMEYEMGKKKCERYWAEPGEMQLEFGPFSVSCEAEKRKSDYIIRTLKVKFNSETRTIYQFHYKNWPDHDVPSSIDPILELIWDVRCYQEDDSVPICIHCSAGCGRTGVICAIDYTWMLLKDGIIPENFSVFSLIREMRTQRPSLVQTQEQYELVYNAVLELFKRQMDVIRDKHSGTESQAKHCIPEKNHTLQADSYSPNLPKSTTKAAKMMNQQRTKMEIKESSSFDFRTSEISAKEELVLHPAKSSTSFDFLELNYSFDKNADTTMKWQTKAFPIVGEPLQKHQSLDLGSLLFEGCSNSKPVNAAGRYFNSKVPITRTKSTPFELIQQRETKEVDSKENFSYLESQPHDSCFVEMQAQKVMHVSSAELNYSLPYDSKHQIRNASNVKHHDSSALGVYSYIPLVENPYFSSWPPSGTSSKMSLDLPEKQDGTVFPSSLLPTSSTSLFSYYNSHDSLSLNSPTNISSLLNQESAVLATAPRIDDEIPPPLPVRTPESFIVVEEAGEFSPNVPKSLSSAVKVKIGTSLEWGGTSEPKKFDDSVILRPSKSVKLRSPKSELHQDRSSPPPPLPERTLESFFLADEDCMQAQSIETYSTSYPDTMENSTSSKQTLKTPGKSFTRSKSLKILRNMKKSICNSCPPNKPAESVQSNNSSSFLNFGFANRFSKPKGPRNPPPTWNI
# [25] = biological target: Tyrosine-protein phosphatase non-receptor type 12 (Homo sapiens, UniProt Q05209); assay: SAR Selectivity Analysis of small molecule inhibitors of PEST using pCAP in a fluorescence assay. [Related pubchem assays (depositor defined):AID1779, AID1784, AID2135]; format: functional
# Chain of Tyrosine-protein phosphatase non-receptor type 12 (Q05209 whole entry): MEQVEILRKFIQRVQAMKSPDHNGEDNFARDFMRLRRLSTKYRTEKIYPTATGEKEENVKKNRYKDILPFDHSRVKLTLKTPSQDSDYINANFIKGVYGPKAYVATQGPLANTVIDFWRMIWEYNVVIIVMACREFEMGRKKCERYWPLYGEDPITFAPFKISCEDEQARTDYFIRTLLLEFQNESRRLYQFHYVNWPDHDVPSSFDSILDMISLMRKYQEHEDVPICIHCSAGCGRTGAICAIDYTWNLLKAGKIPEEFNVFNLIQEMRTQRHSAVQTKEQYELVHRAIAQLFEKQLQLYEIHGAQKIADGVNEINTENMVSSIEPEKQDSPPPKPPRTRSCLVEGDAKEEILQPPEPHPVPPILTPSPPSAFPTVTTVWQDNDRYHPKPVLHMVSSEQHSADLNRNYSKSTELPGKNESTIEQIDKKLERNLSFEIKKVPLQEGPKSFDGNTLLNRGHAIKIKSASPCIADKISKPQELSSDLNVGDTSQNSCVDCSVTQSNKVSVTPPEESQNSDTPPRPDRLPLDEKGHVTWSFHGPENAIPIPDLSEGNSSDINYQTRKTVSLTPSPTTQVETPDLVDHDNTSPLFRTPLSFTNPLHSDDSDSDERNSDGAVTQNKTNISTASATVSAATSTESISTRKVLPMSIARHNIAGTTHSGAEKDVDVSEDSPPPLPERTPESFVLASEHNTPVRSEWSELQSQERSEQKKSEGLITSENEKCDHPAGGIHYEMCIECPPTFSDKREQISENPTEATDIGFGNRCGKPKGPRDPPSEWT
# [26] = biological target: T6, Tyrosine-protein phosphatase non-receptor type 22; assay: SAR LYP1 Fluorescent Assay using OMFP substrate for In Vitro dose response studies - Set 3. [Related pubchem assays (depositor defined):AID1779, AID1784, AID2140, AID2686]; format: functional
# [27] = biological target: T7, Tyrosine-protein phosphatase non-receptor type 7 (Homo sapiens, UniProt P35236); assay: HePTP (PTPN7) phosphatase inhibitor potency, SAR follow-up, biochemical, set 2 (AID 449736); format: functional
# T7 sequence (P35236 whole entry): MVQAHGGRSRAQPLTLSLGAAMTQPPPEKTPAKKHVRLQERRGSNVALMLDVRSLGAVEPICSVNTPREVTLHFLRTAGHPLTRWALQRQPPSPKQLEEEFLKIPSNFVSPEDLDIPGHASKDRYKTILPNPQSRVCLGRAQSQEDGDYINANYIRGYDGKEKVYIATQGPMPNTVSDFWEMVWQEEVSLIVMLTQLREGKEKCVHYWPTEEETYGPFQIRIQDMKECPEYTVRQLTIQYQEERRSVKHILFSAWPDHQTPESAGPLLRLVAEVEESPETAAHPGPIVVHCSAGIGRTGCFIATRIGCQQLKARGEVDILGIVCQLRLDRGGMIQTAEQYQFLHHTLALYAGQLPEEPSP
# [28] = biological target: T6, Tyrosine-protein phosphatase non-receptor type 22; assay: LYP (PTPN22) phosphatase inhibitor potency, SAR follow-up, biochemical, pCAP fluorogenic substrate, fluorescence, set 3 (AID 449727); format: functional
# [29] = biological target: T6, Tyrosine-protein phosphatase non-receptor type 22; assay: SAR LYP1 Fluorescent Assay using OMFP substrate for In Vitro dose response studies - Set 2. [Related pubchem assays (depositor defined):AID1779, AID1784, AID2140, AID449726, AID488869]; format: functional
smiles,measurement,setting,value
CCCCn1c(=O)[nH]c(=O)c2c1nc(-c1ccc(C#N)cc1)n2C1CCCC1,IC50,Bcl-2-related protein A1,> 20 µM (inactive)
same,IC50,[1],18.7 µM (active)
same,IC50,[2],1.99 µM (active)
CCCCOC(=O)c1ccc(NC(=O)C(=O)NCc2ccco2)cc1,IC50,Coagulation factor XII,> 50 µM (inactive)
Cc1snc2sc(C(=O)c3ccc(F)cc3)c(N)c12,IC50,[3],< 1.23 µM (inactive)
same,IC50,[4],2.03 µM (active)
same,IC50,[5],> 158 µM (not active)
Cc1coc2c(C)c3oc(=O)c(CCC(=O)N[C@@H](C)C(=O)N[C@@H](Cc4ccccc4)C(=O)O)c(C)c3cc12,IC50,[6],> 20 µM (inactive)
same,IC50,[7],3.6 µM (active)
N=C(NOC(=O)c1cccc2ccccc12)c1cccnc1,CC50,[8],15 µM (active)
Cc1ccc(Nc2nc(NCc3ccco3)c3ccccc3n2)cc1.Cl,EC50,[9],> 160 µM (inconclusive)
same,EC50,[10],3.24 µM (active)
same,IC50,[11],5.21 µM (active)
same,EC50,[12],< 100 nM (active)
same,EC50,[13],> 30 µM (not active)
same,IC50,[1],> 20 µM (inactive)
same,Absolute IC50 (CHOP),[14],10 µM
same,Absolute IC50 (XBP1),X-box-binding protein 1,10 µM
same,AC50,INS1,3.65 µM (active)
same,AC50,[15],9.84 µM (active)
same,AC50,[16],12.6 µM (active)
same,AC50,[17],3.31 µM (active)
same,AC50,[18],10.9 µM (active)
same,AC50,[19],7.35 µM (active)
same,AC50,[20],9.43 µM (active)
same,AC50,[21],12.3 µM (active)
same,AC50,[22],16.1 µM (active)
same,EC50,cells,94 nM (active)
Cc1ccc(OCc2cc3ccc(C)c(C)c3nc2Cl)c([N+](=O)[O-])n1,EC50,[23],> 50 µM (inactive)
N#C/C(=C\c1ccc(OCc2ccc(F)cc2)cc1)C(=O)Nc1cccc(C(=O)O)c1,IC50,[24],5.52 µM (active)
same,IC50,[25],916 nM (active)
same,IC50,[26],967 nM (active)
same,IC50,[27],2.03 µM (active)
same,IC50,[28],6.93 µM (active)
same,IC50,[29],5.27 µM (active)
same,IC50,[7],4.13 µM (active)
